Experimental data from patent US20250313533A1, “QUINOLINE CARBOXYLIC ACID ESTER COMPOUND AND PREPARATION METHOD AND USE THEREOF” (priority 2019, published 2025).

Experiments:
[1] = tested on: pathogenic bacteria causing bacterial angular leaf spot in cucumbers; assay: In vitro bactericidal activity, bacterial angular leaf spot in cucumbers; type: cell-based, pseudomonas; details: read-out: inhibitory rate; for inhibition at 1 ppm: dosage 1 ppm; for inhibition at 5 ppm: dosage 5 ppm
[2] = tested on: pathogenic bacteria causing bacterial wilt in tobacco; assay: whole plant or invertebrate; type: cell-based, ralstonia; details: read-out: inhibitory rate
[3] = tested on: pathogenic bacteria causing black shank in potatoes; assay: In vitro bactericidal activity, black shank in potatoes; type: cell-based; details: read-out: inhibitory rate; for inhibition at 1 ppm: dosage 1 ppm; for inhibition at 5 ppm: dosage 5 ppm
[4] = tested on: pathogenic bacteria causing stem rot in sweet potatoes; assay: In vitro bactericidal activity, stem rot in sweet potatoes; type: cell-based, dikia; details: read-out: inhibitory rate; for inhibition at 1 ppm: dosage 1 ppm; for inhibition at 5 ppm: dosage 5 ppm
[5] = tested on: pathogenic bacteria causing bacterial blight in rice; assay: whole plant or invertebrate; type: cell-based, xanthomonas; details: read-out: inhibitory rate
[6] = tested on: pathogenic bacteria causing fruit blotch in watermelons; assay: In vitro bactericidal activity, fruit blotch in watermelons; type: cell-based, acidovorax; details: read-out: inhibitory rate; for inhibition at 1 ppm: dosage 1 ppm; for inhibition at 5 ppm: dosage 5 ppm
[7] = tested on: pathogenic bacteria causing black rot in Chinese cabbages; assay: In vitro bactericidal activity, black rot in Chinese cabbages; type: cell-based, xanthomonas; details: Xanthomonas, read-out: inhibitory rate; for inhibition at 1 ppm: dosage 1 ppm; for inhibition at 5 ppm: dosage 5 ppm
[8] = tested on: pathogenic bacteria causing bacterial wilt in cassava; assay: organism not typed; type: cell-based; details: read-out: inhibitory rate
[9] = tested on: pathogenic bacteria causing fire blight in pears; assay: In vitro bactericidal activity, fire blight in pears; type: cell-based, erwinia; details: Erwinia, read-out: inhibitory rate; for inhibition at 1 ppm: dosage 1 ppm; for inhibition at 5 ppm: dosage 5 ppm
black shank in potatoes = assay: Living crops in vivo protective activity, potatoes (root irrigation); details: Solanum tuberosum, read-out: efficacy against black shank in potatoes; for pest or weed control at 5 ppm: dosage 5 ppm; for pest or weed control at 10 ppm: dosage 10 ppm
Description: Root irrigation was carried out on the potatoes for tests according to the designed concentration of the agents. The dosage for each plant was 200 mL and was kept consistent (also for the control). The black shank bacteria were inoculated on the second day after the application. The results were investigated according to the disease condition.

[10] = tested on: indoor potted cucumber seedlings; assay: Effect of improving growth and development of crops; type: in vivo; design: Rate of growth rate increase (%): concentration or dose not given beside the values; details: versus blank control; for Rate of chlorophyll content increase (%) / Rate of leaf area increase (%): 14 days after application; for Rate of growth rate increase (%): plant height 14 days after application; for Rate of leaf area increase (%): second leaf
Outline: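 Before treatment, plant height and the second leaf's length and width are recorded. After 14 days these are repeated, chlorophyll is read by meter, and percentage increases in growth rate, leaf area and chlorophyll are computed.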

cucumber seedlings = assay: Safety for plant growth after application; type: in vivo; details: dosage 200 ppm
Outline: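 Read-outs are chlorophyll content, leaf area and the rate of increase in plant height, all measured on cucumber seedlings kept in pots indoors after application.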

[11] = tested on: bacterial wilt in tobacco; assay: whole plant or invertebrate; details: Nicotiana tabacum, read-out: efficacy against bacterial wilt in tobacco
[12] = tested on: stem rot in sweet potatoes; assay: whole plant or invertebrate; details: read-out: efficacy against stem rot in sweet potatoes
bacterial blight in rice = assay: whole plant or invertebrate; details: Oryza sativa, read-out: efficacy against bacterial blight in rice
[13] = tested on: fruit blotch in watermelons; assay: whole plant or invertebrate; details: read-out: efficacy against fruit blotch in watermelons
[14] = tested on: soft rot in Chinese cabbages; assay: whole plant or invertebrate; details: 48 h, read-out: efficacy against soft rot in Chinese cabbages

Structure (SMILES) | inhibition at 1 ppm [1] | inhibition at 5 ppm [1] | inhibition at 1 ppm [2] | inhibition at 5 ppm [2] | inhibition at 1 ppm [3] | inhibition at 5 ppm [3] | inhibition at 1 ppm [4] | inhibition at 5 ppm [4] | inhibition at 1 ppm [5] | inhibition at 5 ppm [5] | inhibition at 1 ppm [6] | inhibition at 5 ppm [6] | inhibition at 1 ppm [7] | inhibition at 5 ppm [7] | inhibition at 1 ppm [8] | inhibition at 5 ppm [8] | inhibition at 1 ppm [9] | inhibition at 5 ppm [9] | pest or weed control at 5 ppm (black shank in potatoes) | pest or weed control at 10 ppm (black shank in potatoes) | further results
COCCOC(=O)c1cn(C2CC2)c2cc(OCC(F)(F)F)ccc2c1=O [Compound 364] | ≥ 80% | ≥ 90% | ≥ 80% | ≥ 90% | ≥ 80% | ≥ 90% | ≥ 80% | ≥ 90% | ≥ 80% | ≥ 90% | ≥ 80% | ≥ 90% | ≥ 80% | ≥ 90% | ≥ 80% | ≥ 90% | ≥ 80% | ≥ 90% | ≥ 80% | ≥ 90% | Rate of chlorophyll content increase (%) [10]: 12%; Rate of growth rate increase (%) [10]: 7%; Rate of leaf area increase (%) [10]: 9%; safety for plant growth (discoloration, necrosis, wilt, malformation) (cucumber seedlings): safe for plant growth; pest or weed control at 5 ppm [11]: ≥ 90%; pest or weed control at 10 ppm [11]: ≥ 90%; pest or weed control at 5 ppm [12]: ≥ 90%; pest or weed control at 10 ppm [12]: ≥ 90%; pest or weed control at 5 ppm (bacterial blight in rice): ≥ 80%; pest or weed control at 10 ppm (bacterial blight in rice): ≥ 90%; pest or weed control at 5 ppm [13]: ≥ 90%; pest or weed control at 10 ppm [13]: ≥ 90%; pest or weed control at 5 ppm [14]: ≥ 80%; pest or weed control at 10 ppm [14]: ≥ 90%
CCOCCOC(=O)c1cn(C2CC2)c2cc(OCC(F)(F)F)c(F)cc2c1=O [Compound 335] | ≥ 90% | ≥ 90% | ≥ 90% | ≥ 90% | ≥ 90% | ≥ 90% | ≥ 90% | ≥ 90% | ≥ 90% | ≥ 90% | ≥ 90% | ≥ 90% | ≥ 90% | ≥ 90% | ≥ 90% | ≥ 90% | ≥ 90% | ≥ 90% | ≥ 90% | ≥ 90% | Rate of chlorophyll content increase (%) [10]: 16%; Rate of growth rate increase (%) [10]: 12%; Rate of leaf area increase (%) [10]: 16%; safety for plant growth (discoloration, necrosis, wilt, malformation) (cucumber seedlings): safe for plant growth; pest or weed control at 5 ppm [11]: ≥ 90%; pest or weed control at 10 ppm [11]: ≥ 90%; pest or weed control at 5 ppm [12]: ≥ 90%; pest or weed control at 10 ppm [12]: ≥ 90%; pest or weed control at 5 ppm (bacterial blight in rice): ≥ 90%; pest or weed control at 10 ppm (bacterial blight in rice): ≥ 90%; pest or weed control at 5 ppm [13]: ≥ 90%; pest or weed control at 10 ppm [13]: ≥ 90%; pest or weed control at 5 ppm [14]: ≥ 90%; pest or weed control at 10 ppm [14]: ≥ 90%
CC(C)(C)Oc1cc2c(cc1F)c(=O)c(C(=O)OCCO)cn2C1CC1 [Compound 270] | ≥ 90% | ≥ 90% | ≥ 90% | ≥ 90% | ≥ 90% | ≥ 90% | ≥ 90% | ≥ 90% | ≥ 90% | ≥ 90% | ≥ 90% | ≥ 90% | ≥ 90% | ≥ 90% | ≥ 90% | ≥ 90% | ≥ 90% | ≥ 90% | ≥ 80% | ≥ 90% | Rate of chlorophyll content increase (%) [10]: 10%; Rate of growth rate increase (%) [10]: 9%; Rate of leaf area increase (%) [10]: 12%; safety for plant growth (discoloration, necrosis, wilt, malformation) (cucumber seedlings): safe for plant growth; pest or weed control at 5 ppm [11]: ≥ 90%; pest or weed control at 10 ppm [11]: ≥ 90%; pest or weed control at 5 ppm [12]: ≥ 90%; pest or weed control at 10 ppm [12]: ≥ 90%; pest or weed control at 5 ppm (bacterial blight in rice): ≥ 90%; pest or weed control at 10 ppm (bacterial blight in rice): ≥ 90%; pest or weed control at 5 ppm [13]: ≥ 90%; pest or weed control at 10 ppm [13]: ≥ 90%; pest or weed control at 5 ppm [14]: ≥ 90%; pest or weed control at 10 ppm [14]: ≥ 90%
CNc1cc2c(cc1F)c(=O)c(C(=O)OCCO)cn2C1CC1 [Compound 400] | ≥ 90% | ≥ 90% | ≥ 90% | ≥ 90% | ≥ 90% | ≥ 90% | ≥ 90% | ≥ 90% | ≥ 90% | ≥ 90% | ≥ 90% | ≥ 90% | ≥ 90% | ≥ 90% | ≥ 90% | ≥ 90% | ≥ 90% | ≥ 90% | ≥ 90% | ≥ 90% | Rate of chlorophyll content increase (%) [10]: 17%; Rate of growth rate increase (%) [10]: 13%; Rate of leaf area increase (%) [10]: 18%; safety for plant growth (discoloration, necrosis, wilt, malformation) (cucumber seedlings): safe for plant growth; pest or weed control at 5 ppm [11]: ≥ 90%; pest or weed control at 10 ppm [11]: ≥ 90%; pest or weed control at 5 ppm [12]: ≥ 90%; pest or weed control at 10 ppm [12]: ≥ 90%; pest or weed control at 5 ppm (bacterial blight in rice): ≥ 90%; pest or weed control at 10 ppm (bacterial blight in rice): ≥ 90%; pest or weed control at 5 ppm [13]: ≥ 90%; pest or weed control at 10 ppm [13]: ≥ 90%; pest or weed control at 5 ppm [14]: ≥ 90%; pest or weed control at 10 ppm [14]: ≥ 90%
O=C(OCCO)c1cn(C2CC2)c2cc(N3CCCCC3)c(F)cc2c1=O [Compound 431] | ≥ 90% | ≥ 90% | ≥ 90% | ≥ 90% | ≥ 90% | ≥ 90% | ≥ 90% | ≥ 90% | ≥ 90% | ≥ 90% | ≥ 90% | ≥ 90% | ≥ 90% | ≥ 90% | ≥ 90% | ≥ 90% | ≥ 90% | ≥ 90% | ≥ 90% | ≥ 90% | Rate of chlorophyll content increase (%) [10]: 15%; Rate of growth rate increase (%) [10]: 12%; Rate of leaf area increase (%) [10]: 11%; safety for plant growth (discoloration, necrosis, wilt, malformation) (cucumber seedlings): safe for plant growth; pest or weed control at 5 ppm [11]: ≥ 90%; pest or weed control at 10 ppm [11]: ≥ 90%; pest or weed control at 5 ppm [12]: ≥ 90%; pest or weed control at 10 ppm [12]: ≥ 90%; pest or weed control at 5 ppm (bacterial blight in rice): ≥ 90%; pest or weed control at 10 ppm (bacterial blight in rice): ≥ 90%; pest or weed control at 5 ppm [13]: ≥ 90%; pest or weed control at 10 ppm [13]: ≥ 90%; pest or weed control at 5 ppm [14]: ≥ 90%; pest or weed control at 10 ppm [14]: ≥ 90%
CNc1cc2c(cc1F)c(=O)c(C(=O)OCCOC)cn2C1CC1 [Compound 401] | ≥ 90% | ≥ 90% | ≥ 90% | ≥ 90% | ≥ 90% | ≥ 90% | ≥ 90% | ≥ 90% | ≥ 90% | ≥ 90% | ≥ 90% | ≥ 90% | ≥ 90% | ≥ 90% | ≥ 90% | ≥ 90% | ≥ 90% | ≥ 90% | ≥ 90% | ≥ 90% | Rate of chlorophyll content increase (%) [10]: 13%; Rate of growth rate increase (%) [10]: 10%; Rate of leaf area increase (%) [10]: 10%; safety for plant growth (discoloration, necrosis, wilt, malformation) (cucumber seedlings): safe for plant growth; pest or weed control at 5 ppm [11]: ≥ 90%; pest or weed control at 10 ppm [11]: ≥ 90%; pest or weed control at 5 ppm [12]: ≥ 90%; pest or weed control at 10 ppm [12]: ≥ 90%; pest or weed control at 5 ppm (bacterial blight in rice): ≥ 90%; pest or weed control at 10 ppm (bacterial blight in rice): ≥ 90%; pest or weed control at 5 ppm [13]: ≥ 90%; pest or weed control at 10 ppm [13]: ≥ 90%; pest or weed control at 5 ppm [14]: ≥ 90%; pest or weed control at 10 ppm [14]: ≥ 90%
